Legend:
Aβ40, Aβ42 = assay: Immunohistochemical staining of Aβ in brain tissue; assay type: in vivo, mouse; details: 0.25 mg/kg i.p. daily 28 days
Protocol: (§1) Hyperglycemia was induced by streptozotocin (STZ) to accelerated Alzheimer's disease progression of 6-month-old male transgenic 3×Tg−AD mice. Half of the 3×Tg−AD mice (n=30) received STZ (100 mg/kg) intraperitoneal injection at days 1, 2, 8, and 9 respectively as the high blood glucose group (HBG); another half of the 3×Tg-AD mice (n=30) received sodium citrate (0.1 M) at the same time points as the normal blood glucose group (NBG). Then, HBG and NBG were divided into two groups respectively to give four groups such as NBG-compound (I), HBG-compound (I), NBG-DMSO, and HBG-DMSO with n=15 in each group; wherein 0.25 mg/kg of compound (I) (in 30 μL) were intraperitoneal injected into those mice of NBG-compound (I) and HBG-compound (I) groups daily since day 14 for 28 days, and 30 μL of DMSO solvent were intraperitoneal injected into those mice of NBG-DMSO and HBG-DMSO groups daily since day 14 for 28 days. Both mouse body weight (BW) and blood glucose (BG) were monitored every week.
After the brain tissue of the mice was fixed and dehydrated, the tissue was cryosectioned (30 μm). The cryosections were then washed with phosphate buffered saline (PBS) for three times. After the optimal cutting temperature compound (OCT) was removed, 3% H2O2 was used to remove the endogenous peroxidase, and the cryosections were blocked by the blocking solution for 1 hour to reduce the non-specific antigen reactions. The primary antibodies (Aβ40, Aβ42) were added and reacted for 12 hours, the secondary antibody (1:200 dilution in blocking solution, Vecter) was added and reacted for 1 hour, and then, the avidin-biotin complex was added and reacted for 1 hour. Finally, DAB-kit was used for coloring. All the stained sections were attached to the slides, dried, dehydrated, and mounted for imaging and quantification (Image Pro Plus). The quantification results were shown in Table 1, wherein ↑, ↓:p<0.05; ↑↑, ↓↓:p<0.01.

[1] = system: GSK-3β (total and p-Ser9); assay: Western blot of total and phosphorylated GSK-3β in tauRD-DsRed SH-SY5Y cells; assay type: cell-based, human
Protocol: (§2) Western blotting analysis was applied for examining the expressions of HSPB1 and GRP78, the method was as follows: total proteins were extracted using RIPA buffer, which comprised 50 mM Tris-HCl, 150 mM NaCl, 1 mM EDTA, 1 mM EGTA, 0.1% SDS, 0.5% sodium deoxycholate, 1% Triton X-100, and a protease inhibitor cocktail (Calbiochem). 25 μM of total proteins were separated on 10% SDS-PAGE gels and blotted onto nitrocellulose membrane which were stained (4° C., overnight) with antibodies against DsRed (1:500; Santa Cruz), HSPB1 (1:500; Santa Cruz), and GRP78 (1:200; Santa Cruz). Next, immunoreactive bands were detected using horseradish peroxidase-conjugated goat anti-mouse, goat anti-rabbit, or donkey anti-goat IgG antibodies (1:5000; GeneTex) and chemiluminescent substrate (Millipore).
(§3) The methods of cell culture and western blot analysis are similar to that described above, except that the antibodies against GSK-3β (total and p-Ser9) (1:1000; Cell Signaling), total tau (1:500; Dako), p-tau (Ser202) (1:500; AnaSpec), p-tau (Thr231 and Ser396) (1:1000; Invitrogen), [3-actin (1:5000; Millipore), or GAPDH (1:2000; MDBio) were used herein for evaluation of the expression levels thereof in the cells.

[2] = system: p-tau (Ser202, Thr231 and Ser396); assay: Western blot of phosphorylated tau in tauRD-DsRed SH-SY5Y cells; assay type: cell-based, human; details: untreated = 100%
Protocol: as §2, §3

GSK-3β = assay: Western blot of mouse hippocampal tissue, GSK-3β; assay type: in vivo; details: hyperglycemic 3×Tg-AD mice; 0.25 mg/kg i.p. daily
Protocol: Hyperglycemia was induced by streptozotocin (STZ) to accelerated Alzheimer's disease progression of 6-month-old male transgenic 3×Tg−AD mice. Half of the 3×Tg−AD mice (n=30) received STZ (100 mg/kg) intraperitoneal injection at days 1, 2, 8, and 9 respectively as the high blood glucose group (HBG); another half of the 3×Tg-AD mice (n=30) received sodium citrate (0.1 M) at the same time points as the normal blood glucose group (NBG). […] Both mouse body weight (BW) and blood glucose (BG) were monitored every week.
Mice were sacrificed after MWM and hippocampi were isolated for analyzing several protein expression levels by means of western blot. The protein of the hippocampi was quantified by BCA assay (Pierce), wherein 25 μg of protein was separated by SDS-PAGE and then transferred to PVDF film. Next, protein was blocked for reducing non-specific signals, and reacted with primary antibodies (GSK-3β, pS9-GSK-3β (non-activated), pT216-GSK-3β(activated), pS202Tau, pS396Tau, pT231Tau, HT7 (total Tau)), and secondary antibodies (anti-rabbit, anti-mouse IgG HRP-linked antibody; 1:10,000; Amersham Pharmacia Biotech). β-actin was used as the loading control, ECL kit was used to detect the antigen-antibody complex, and LAS-4000 (Fujifilm) was used for imaging and quantification.

[3] = Body weight monitoring in STZ 3×Tg-AD mice; assay type: in vivo, mouse; details: 0.25 mg/kg i.p. daily 28 days; NBG vs HBG groups treated with compound (I)
Protocol: as §1

HSPB1 = assay: Western blot of HSPB1 expression in tauRD-DsRed SH-SY5Y cells; assay type: cell-based, human; details: untreated = 100%
From the text: Furthermore, chaperones are molecules essential for proper protein folding which play a key role in protein-folding disorders in central nervous system. […] Moreover, the upregulation of endoplasmic reticulum chaperones such as glucose-regulated protein, 78 kDa (GRP78) is a cellular protective response against AD (Hoshino et al., 2007. Endoplasmic reticulum chaperones inhibit the production of amyloid-(3 peptides. Biochem. J. 402, 581-589). Accordingly, the GRP78 and HSPB1 expression in tauRD-DsRed SH-SYSY cells treated by Congo red and compound (I) with or without doxycycline were analyzed.
as §2, with “25 μM of total proteins were separated on 10% SDS-PAGE gels and blotted onto nitrocellulose membrane which were stained (4° C., overnight) with antibodies against DsRed (1:500; Santa Cruz), HSPB1 (1:500; Santa Cruz), and GRP78 (1:200; Santa Cruz).” left out

[4] = HBG (high blood glucose, STZ) 3×Tg-AD mice
[5] = NBG (normal blood glucose) 3×Tg-AD mice

CCCCC/C=C\C/C=C\C/C=C\C/C=C\CCCC(=O)Nc1ccc(O)cc1 [compound (I), (5Z, 8Z, 11Z,14Z)-N-(4-Hydroxyphenyl)icosa-5 ,8 , 11,14-tetraen amide]
Aβ40 staining quantification (Aβ40, Aβ42; [4]): 164.78 ± 9.51↓↓ | Aβ42 staining quantification (Aβ40, Aβ42; [4]): 26.91 ± 1.28↓ | Aβ40 staining quantification (Aβ40, Aβ42; [5]): 181.88 ± 4.17 | Aβ42 staining quantification (Aβ40, Aβ42; [5]): 29.13 ± 0.64 | GSK-3β expression [1]: down-regulated | expression level of phosphorylated GSK-3β [1]: increased | phosphorylated tau Ser202 level relative to untreated cells [2]: 32%-42% | phosphorylated tau Ser396 level relative to untreated cells [2]: 54%-78% | phosphorylated tau Thr231 level relative to untreated cells [2]: 37%-48% | GSK-3β inhibition in hippocampus (pT216-GSK-3β/GSK-3β, pS9-GSK-3β/GSK-3β) (GSK-3β): exerts inhibition for GSK-3β | body weight (BW) [3]: no significant difference in BW | expression of HSPB1 relative to untreated cells (HSPB1): 174%
